Measurements as given in the NIST ThermoML archive (doi:10.1016/j.jct.2017.12.023).
Numbers after ± are expanded uncertainties.

Experiments:
[1] = xn = mol fraction of the nth substance listed; settings: 100 kPa, Liquid, x2 = 0; for viscosity: Concentric cylinders viscometry; for mass density: Vibrating tube method
[2] = refractive index (Na D-line) (dimensionless); xn = mol fraction of the nth substance listed; settings: 100 kPa, Liquid, Standard Abbe refractometry, x2 = 0
[3] = Liquid; for viscosity / mass density: 100 kPa; for viscosity: Concentric cylinders viscometry; for mass density: Vibrating tube method; for thermal conductivity: 101.33 kPa, transient hot wire
[4] = refractive index (Na D-line) (dimensionless); settings: 100 kPa, Liquid, Standard Abbe refractometry

CN1CCCC1=O [N-methylpyrrolidone] + CCOS(=O)(=O)[O-].CCn1cc[n+](C)c1
Settings	mass density, [1] [kg/m3]	refractive index, [2]	viscosity, [1] [mPa·s]
288.15 K	1037.3 ± 1.5	1.47166 ± 0.00069	1.99 ± 0.023
293.15 K	1032.84 ± 1.5	1.46952 ± 0.00069	1.823 ± 0.021
298.15 K	1028.38 ± 1.5	1.46736 ± 0.00069	1.679 ± 0.019
303.15 K	1023.93 ± 1.5	1.4652 ± 0.00069	1.555 ± 0.018
308.15 K	1019.46 ± 1.5	1.46306 ± 0.00069	1.444 ± 0.017
313.15 K	1015 ± 1.5	1.46095 ± 0.00069	1.346 ± 0.016
318.15 K	1010.53 ± 1.5	1.45891 ± 0.00069	1.259 ± 0.015
323.15 K	1006.06 ± 1.5	1.4568 ± 0.00069	1.182 ± 0.014
328.15 K	1001.58 ± 1.5	1.45473 ± 0.00069	1.11 ± 0.013
333.15 K	997.1 ± 1.5	1.45267 ± 0.00069	1.043 ± 0.013

CCCCCCO [hexan-1-ol]
Settings	mass density, [3] [kg/m3]	refractive index, [4]	viscosity, [3] [mPa·s]
288.15 K	822.26 ± 1.5	1.41986 ± 0.00069	6.297 ± 0.068
293.15 K	818.69 ± 1.5	1.4179 ± 0.00069	5.324 ± 0.058
298.15 K	815.11 ± 1.5	1.41591 ± 0.00069	4.53 ± 0.049
303.15 K	811.51 ± 1.5	1.41386 ± 0.00069	3.889 ± 0.043
308.15 K	807.88 ± 1.5	1.41182 ± 0.00069	3.355 ± 0.037
313.15 K	804.23 ± 1.5	1.40981 ± 0.00069	2.912 ± 0.032
318.15 K	800.56 ± 1.5	1.40779 ± 0.00069	2.541 ± 0.028
323.15 K	796.85 ± 1.5	1.40574 ± 0.00069	2.251 ± 0.025

CCOS(=O)(=O)[O-].CCn1cc[n+](C)c1 [1-ethyl-3-methylimidazolium ethyl sulfate]
Settings	mass density, [3] [kg/m3]	refractive index, [4]	thermal conductivity, [3] [W/m/K]	viscosity, [3] [mPa·s]
288.15 K	1243.07 ± 1.6	1.48155 ± 0.00069	–	155.55 ± 2.7
293.15 K	1239.66 ± 1.6	1.48018 ± 0.00069	–	117.88 ± 1.8
298.15 K	1236.27 ± 1.6	1.47882 ± 0.00069	–	91.26 ± 1.2
303.15 K	1232.87 ± 1.6	1.47746 ± 0.00069	0.1808 ± 0.0073	72.1 ± 0.81
308.15 K	1229.49 ± 1.6	1.47611 ± 0.00069	0.18 ± 0.0072	57.98 ± 0.61
313.15 K	1226.13 ± 1.6	1.47474 ± 0.00069	0.1795 ± 0.0072	47.26 ± 0.51
318.15 K	1222.79 ± 1.6	1.47341 ± 0.00069	0.1787 ± 0.0072	39.25 ± 0.42
323.15 K	1219.46 ± 1.6	1.47206 ± 0.00069	0.178 ± 0.0072	32.94 ± 0.35
328.15 K	1216.16 ± 1.6	1.47075 ± 0.00069	–	27.96 ± 0.3
333.15 K	1212.86 ± 1.5	1.46943 ± 0.00069	–	24.09 ± 0.26

CCCCCCO [hexan-1-ol] + CCOS(=O)(=O)[O-].CCn1cc[n+](C)c1
Settings	mass density, [1] [kg/m3]	refractive index, [2]	viscosity, [1] [mPa·s]
288.15 K	822.26 ± 1.5	1.41986 ± 0.00069	6.297 ± 0.068
293.15 K	818.69 ± 1.5	1.4179 ± 0.00069	5.324 ± 0.058
298.15 K	815.11 ± 1.5	1.41591 ± 0.00069	4.53 ± 0.049
303.15 K	811.51 ± 1.5	1.41386 ± 0.00069	3.889 ± 0.043
308.15 K	807.88 ± 1.5	1.41182 ± 0.00069	3.355 ± 0.037
313.15 K	804.23 ± 1.5	1.40981 ± 0.00069	2.912 ± 0.032
318.15 K	800.56 ± 1.5	1.40779 ± 0.00069	2.541 ± 0.028
323.15 K	796.85 ± 1.5	1.40574 ± 0.00069	2.251 ± 0.025
